Assay results reported in patent US20230016424A1, “HYBRID AMIDE DERIVATIVES OF AMPHOTERICIN B” (The Board of Trustees of the University of Illinois, priority 2019, published 2023).
Values after ≈ are worked out from the molar mass of the structure shown.

What was measured:
A. fumigatus = test: MIC against moulds; type: cell-based; details: Aspergillus fumigatus; 5 isolates
A. flavus = test: MIC against moulds; type: cell-based; details: Aspergillus flavus; 6 isolates
A. niger = test: MIC against moulds; type: cell-based; details: Aspergillus niger; 6 isolates
A. terreus = test: MIC against moulds; type: cell-based; details: Aspergillus terreus; 6 isolates
A. lentulus = test: MIC against moulds; type: cell-based; details: Aspergillus lentulus; 6 isolates
A. thermomutatus = test: MIC against moulds; type: cell-based; details: Aspergillus thermomutatus, read-out: MIC A. thermomutatus
Mucor circinelloides = test: MIC against moulds; type: cell-based; details: Mucor circinelloides; 6 isolates
Mucor janssenii = test: MIC against moulds; type: cell-based; details: Mucor janssenii; 6 isolates
Mucor velutinosus = test: MIC against moulds; type: cell-based; details: Mucor velutinosus; 6 isolates
Histoplasma capsulatum = test: microbe, parasite or virus in culture; type: cell-based; details: Histoplasma capsulatum, read-out: MIC Histoplasma capsulatum
Coccidioides posadasii = test: microbe, parasite or virus in culture; type: cell-based; details: Coccidioides posadasii, read-out: MIC Coccidioides posadasii
Fusarium oxysporum = test: MIC against moulds; type: cell-based; details: Fusarium oxysporum; 6 isolates
Fusarium solani = test: MIC against moulds; type: cell-based; details: Fusarium solani; 6 isolates
Cunninghamella sp. = test: MIC against moulds; type: cell-based; details: Cunninghamella; 6 isolates
Syncephalastrum sp. = test: MIC against moulds; type: cell-based; details: Syncephalastrum; 6 isolates
Claophialophora bantiana = test: MIC against moulds; type: cell-based; details: 6 isolates
Blastomyces dermatitidis = test: MIC against moulds; type: cell-based; details: Blastomyces dermatitidis; 5 isolates
Fonsecaea sp. = test: MIC against moulds; type: cell-based; details: Fonsecaea; 6 isolates
Apophysomyces sp. = test: MIC against moulds; type: cell-based; details: 3 isolates
Saksenaea sp. = test: MIC against moulds; type: cell-based; details: 4 isolates
Different Moulds = test: Average MIC against different moulds; type: cell-based; set-up: MICavg moulds (159 strains): unit not given beside the values
Candida auris = test: MIC against yeasts; type: cell-based; details: Candidozyma auris; 10 isolates
Cryptococcus neoformans = test: MIC against yeasts; type: cell-based; details: Cryptococcus neoformans; 10 isolates
Cryptococcus gattii = test: MIC against yeasts; type: cell-based; details: Cryptococcus gattii; 10 isolates
Rhodotorula sp. = test: MIC against yeasts; type: cell-based; details: Rhodotorula; 6 isolates
Different Yeasts = test: Average MIC against different yeasts; type: cell-based; set-up: MICavg yeast (46 strains): unit not given beside the values
Scedosporium aurantiacum = test: MIC against rare moulds resistant to AmB; type: cell-based; details: Scedosporium aurantiacum; 4 isolates
Plasma Stability = type: in vitro ADME; details: for half-life at 1 µM: pH 7.4
Protocol: Plasma Stability: Procedure: […] Plasma was warmed to 37° C. prior to the experiment and centrifuged for 5 mins at 4000 rpm. […] Each time point was monitored in triplicate (0, 10, 30, 60 and 120 min). 4 uL/well aliquot of the working solution was mixed to the blank plasma and incubated at 37° C. AT each time point samples were quenched with ACN stop solution containing 200 ng/ml Tolbutamide & 200 ng/ml Labetalol at 1:3 ratio and mix well on shaker for 10 min then centrifuge at 4000 rpm for 15 min. A 100 ul aliquot of supernatant was mixed with 100 μL of ultra-pure and submitted for LC-MS/MS analysis.

CYP2C9 = CYP2C9 (Homo sapiens, UniProt P11712); test: CYP Inhibition; details: human, human liver microsomes, probe 5 in 1 substrate cocktail
Protocol: (§1) The working solutions of the test compounds and the standard inhibitors were prepared in DMSO (100× final concentration). 20 ul of substrate solution (5 in 1 cocktail) was added to the wells followed by 2 ul test compound solution was added. 158 ul of human liver microsome (HLM) was added to all the wells of the incubated plate and warmed to 37° C. for 10 mins. 20 ul of NADPH cofactor solution was then added to all the wells of incubated plate and incubated at 37° C. for 10 mins. At the time point the reaction was quenched by adding 400 uL of cold stop solution. The samples were centrifuged at 4000 rpm for 20 mins to precipitate protein. 100 ul supernatant was diluted with 100 ul of ultra pure water and analyzed using LCMS.

CYP2D6 = CYP2D6 (Homo sapiens, UniProt P10635); test: CYP Inhibition; details: human, human liver microsomes, probe 5 in 1 substrate cocktail (substrates not named)
Protocol: as §1

CYP3A4 = CYP3A4 (Homo sapiens, UniProt P08684); test: CYP Inhibition; details: human, human liver microsomes, probe 5 in 1 substrate cocktail (substrates not named)
Protocol: as §1

CYP2C19 = target: T1, CYP2C19 (Homo sapiens, UniProt P33261); test: CYP Inhibition; type: in vitro ADME; details: human liver microsomes, probe 5 in 1 substrate cocktail (substrates not named), human liver microsome, read-out: P450 2C19 % Inhibition
T1 construct: 158 ul of human liver microsome (HLM) was added to all the wells; from tissue; host or cells: human liver microsomes

yeast (5 strains) = test: MICavg yeast (5 strains); type: cell-based; set-up: unit not given beside the values
Solubility in D5W = details: 5% dextrose in water (D5W), saline or isotonic, thermodynamic from solid
Candida albicans SN250 = test: Mouse model of invasive candidiasis (kidney CFU); details: 5 mpk

Chain of CYP2D6 (P10635 whole entry): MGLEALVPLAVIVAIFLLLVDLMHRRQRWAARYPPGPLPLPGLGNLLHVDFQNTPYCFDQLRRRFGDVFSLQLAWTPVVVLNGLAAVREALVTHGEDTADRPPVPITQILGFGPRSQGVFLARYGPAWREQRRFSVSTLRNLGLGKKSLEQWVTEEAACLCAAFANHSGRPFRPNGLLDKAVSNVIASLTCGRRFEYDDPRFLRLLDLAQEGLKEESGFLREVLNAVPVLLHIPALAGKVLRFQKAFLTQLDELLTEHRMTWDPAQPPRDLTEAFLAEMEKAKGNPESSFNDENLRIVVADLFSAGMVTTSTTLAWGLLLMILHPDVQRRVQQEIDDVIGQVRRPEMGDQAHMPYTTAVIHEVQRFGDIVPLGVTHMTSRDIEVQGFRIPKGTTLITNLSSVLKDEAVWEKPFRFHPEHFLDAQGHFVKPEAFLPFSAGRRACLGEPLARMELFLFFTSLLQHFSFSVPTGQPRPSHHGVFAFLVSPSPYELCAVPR
T1 sequence (P33261 whole entry): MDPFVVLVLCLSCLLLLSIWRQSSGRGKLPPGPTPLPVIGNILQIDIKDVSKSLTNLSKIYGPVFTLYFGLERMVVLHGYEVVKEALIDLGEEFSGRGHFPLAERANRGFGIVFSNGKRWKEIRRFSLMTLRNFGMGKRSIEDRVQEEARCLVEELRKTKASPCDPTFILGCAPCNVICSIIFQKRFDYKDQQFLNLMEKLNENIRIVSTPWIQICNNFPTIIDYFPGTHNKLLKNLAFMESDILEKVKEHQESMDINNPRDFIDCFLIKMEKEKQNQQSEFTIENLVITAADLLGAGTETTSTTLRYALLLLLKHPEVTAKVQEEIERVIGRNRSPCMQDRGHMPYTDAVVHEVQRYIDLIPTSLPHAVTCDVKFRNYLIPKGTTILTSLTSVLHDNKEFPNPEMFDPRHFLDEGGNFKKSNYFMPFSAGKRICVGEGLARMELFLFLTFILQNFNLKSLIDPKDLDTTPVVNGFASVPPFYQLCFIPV
Chain of CYP3A4 (P08684 whole entry): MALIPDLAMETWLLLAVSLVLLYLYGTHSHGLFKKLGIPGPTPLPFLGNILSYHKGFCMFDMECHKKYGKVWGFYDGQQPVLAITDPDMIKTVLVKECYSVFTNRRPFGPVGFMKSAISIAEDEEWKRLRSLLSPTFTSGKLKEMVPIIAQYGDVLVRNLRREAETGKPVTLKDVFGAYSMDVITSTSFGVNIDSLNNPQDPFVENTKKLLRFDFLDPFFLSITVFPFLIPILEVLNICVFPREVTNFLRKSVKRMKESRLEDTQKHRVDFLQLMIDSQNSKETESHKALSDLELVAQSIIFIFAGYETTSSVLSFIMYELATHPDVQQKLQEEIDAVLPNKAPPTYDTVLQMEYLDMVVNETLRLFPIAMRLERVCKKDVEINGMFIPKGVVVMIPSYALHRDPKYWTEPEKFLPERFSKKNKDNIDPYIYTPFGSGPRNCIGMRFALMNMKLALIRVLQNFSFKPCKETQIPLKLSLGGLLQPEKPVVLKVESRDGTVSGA
Chain of CYP2C9 (P11712 whole entry): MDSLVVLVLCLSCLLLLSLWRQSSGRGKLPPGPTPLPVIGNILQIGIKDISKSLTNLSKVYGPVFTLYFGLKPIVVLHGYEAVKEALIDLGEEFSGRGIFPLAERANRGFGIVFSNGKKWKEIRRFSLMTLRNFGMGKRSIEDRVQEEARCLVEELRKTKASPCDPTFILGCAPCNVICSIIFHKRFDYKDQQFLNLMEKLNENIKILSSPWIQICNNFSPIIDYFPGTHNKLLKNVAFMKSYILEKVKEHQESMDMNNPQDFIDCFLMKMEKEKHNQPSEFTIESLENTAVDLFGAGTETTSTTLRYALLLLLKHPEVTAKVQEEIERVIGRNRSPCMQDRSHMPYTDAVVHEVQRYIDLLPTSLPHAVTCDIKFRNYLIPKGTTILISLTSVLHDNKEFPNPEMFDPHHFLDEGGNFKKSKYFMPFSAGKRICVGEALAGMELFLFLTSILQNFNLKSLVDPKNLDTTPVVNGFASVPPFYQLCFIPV

## C[C@@H]1[C@H](O)[C@@H](C)/C=C/C=C/C=C/C=C/C=C/C=C/C=C/[C@H](OC2O[C@H](C)[C@@H](O)[C@H](N)[C@@H]2O)C[C@@H]2O[C@](O)(C[C@@H](O)C[C@@H](O)[C@H](O)CC[C@@H](O)C[C@@H](O)CC(=O)O[C@H]1C)C[C@H](O)[C@H]2C(=O)O (stereo partly drawn) [AmB, Amphotericin B]
A. fumigatus
  MIC: 0.71 µM (≈ 0.656 µg/mL)
A. flavus
  MIC: 1.16 µM (≈ 1.07 µg/mL)
A. niger
  MIC: 0.21 µM (≈ 0.194 µg/mL)
A. terreus
  MIC: 3 µM (≈ 2.77 µg/mL)
A. lentulus
  MIC: 3.75 µM (≈ 3.47 µg/mL)
A. thermomutatus
  MIC: 0.6 µM (≈ 0.554 µg/mL)
Mucor circinelloides
  MIC: 0.125 µM (≈ 0.116 µg/mL)
Mucor janssenii
  MIC: 0.06 µM (≈ 0.0554 µg/mL)
Mucor velutinosus
  MIC: 0.08 µM (≈ 0.0739 µg/mL)
Histoplasma capsulatum
  MIC: 0.06 µM (≈ 0.0554 µg/mL)
Coccidioides posadasii
  MIC: 0.06 µM (≈ 0.0554 µg/mL)
Fusarium oxysporum
  MIC: 1.5 µM (≈ 1.39 µg/mL)
Fusarium solani
  MIC: 1.33 µM (≈ 1.23 µg/mL)
Cunninghamella sp.
  MIC: 2 µM (≈ 1.85 µg/mL)
Syncephalastrum sp.
  MIC: 0.06 µM (≈ 0.0554 µg/mL)
Claophialophora bantiana
  MIC: 0.375 µM (≈ 0.347 µg/mL)
Blastomyces dermatitidis
  MIC: < 0.03 µM
Fonsecaea sp.
  MIC: < 0.03 µM
Apophysomyces sp.
  MIC: 0.75 µM (≈ 0.693 µg/mL)
Saksenaea sp.
  MIC: 0.06 µM (≈ 0.0554 µg/mL)
Different Moulds
  MICavg moulds (159 strains): 0.9
Different Moulds; 157 isolates
  MIC: 0.9 µM (≈ 0.832 µg/mL)
Candida auris
  MIC: 1.2 µM (≈ 1.11 µg/mL)
Cryptococcus neoformans
  MIC: 0.55 µM (≈ 0.508 µg/mL)
Cryptococcus gattii
  MIC: 0.75 µM (≈ 0.693 µg/mL)
Rhodotorula sp.
  MIC: 1 µM (≈ 0.924 µg/mL)
Different Yeasts
  MICavg yeast (46 strains): 0.9
Different Yeasts; 46 isolates
  MIC: 0.9 µM (≈ 0.832 µg/mL)
Scedosporium aurantiacum
  MIC: > 16 µM
Plasma Stability; Human Plasma
  % Remaining at 120 min: 97.7%
  Half Life: >289; >289 min
  half-life at 1 µM: > 4.82 h
Plasma Stability; Rat Plasma
  % Remaining at 120 min: 88.3%
  half-life at 1 µM: > 4.82 h
Plasma Stability; Mouse Plasma
  half-life at 1 µM: > 4.82 h
CYP2C9
  inhibition at 10 min, 10 µM: 4.1%
CYP2D6
  inhibition at 10 min, 10 µM: 2.3%
CYP3A4
  inhibition at 10 min, 10 µM: 8.1%
CYP2C19
  inhibition at 10 min, 10 µM: 7.3%
Yeast (5 strains)
  MICavg yeast (5 strains): 0.23
Solubility in D5W
  solubility: 23 µM (≈ 21.3 µg/mL)
Candida albicans SN250
  Mouse candidiasis model: 5.2 Log (CFU/mL)
